Broadly, the IC50 is the concentration needed to halve the response being measured. A higher IC50 goes with weaker potency in that assay.

The structures appear in SMILES notation.

The values that follow come from patent publication US20260250277A1, “HYDRAZINO GROUP-CONTAINING COMPOUND” (CHIA TAI TIANQING PHARMACEUTICAL GROUP CO., LTD., priority 2022, published 2026).

Test [1] addresses DNA-PK (DNA-dependent protein kinase) (Homo sapiens, UniProt P78527). Put plainly: Inhibitory activity against DNA-PK (p53 substrate, HTRF). The test is classed as biochemical. The protocol: (§1) DNA-PK kinase solution (concentration: 0.15 ng/μL) was added to assay wells at 6 μL/well, and different compounds dissolved in DMSO were added to the assay wells separately using a nanoliter pipettor, such that the final concentrations of the compounds were 10000 nM to 2.44 nM. In this experiment, the wells were set in duplicate, and a control well was set. After incubation of the above system for 30 min at room temperature, ATP (100 μM) was mixed with p53 substrate (50 nM) at a ratio of 1:1, and the mixture was added at 4 μL/well. The resulting mixture was left to react at room temperature for 2 h, and then 5 μL of EDTA was added to terminate the reaction, followed by addition of 5 μL of detection antibodies, Mab Anti-phospho p53 and Mab Anti GST-d2 (manufacturer: perkinelmer). The mixture was incubated at room temperature for 1 h. The plate was read using a PerkinElmer Envision multifunctional microplate reader (excitation: 320 nm, emission: 620 nm/665 nm), and IC50 was calculated by four-parameter fitting.
A general note: TR-FRET usually uses a lanthanide donor and a delayed reading to cut background.

For test [2], the target named is ATR/ATPIP (ATR-interacting protein) kinase (Homo sapiens, UniProt Q13535). The test is described as follows: Inhibitory activity against ATR kinase (p53 substrate, HTRF). Format: biochemical. Here is the method: as §1, with “ATR/ATPIP (ATR-interacting protein)” for “DNA-PK”, “50” for “0.15”, “(5” for “(100”
Sequence of ATR/ATPIP (ATR-interacting protein) kinase (Q13535 whole entry): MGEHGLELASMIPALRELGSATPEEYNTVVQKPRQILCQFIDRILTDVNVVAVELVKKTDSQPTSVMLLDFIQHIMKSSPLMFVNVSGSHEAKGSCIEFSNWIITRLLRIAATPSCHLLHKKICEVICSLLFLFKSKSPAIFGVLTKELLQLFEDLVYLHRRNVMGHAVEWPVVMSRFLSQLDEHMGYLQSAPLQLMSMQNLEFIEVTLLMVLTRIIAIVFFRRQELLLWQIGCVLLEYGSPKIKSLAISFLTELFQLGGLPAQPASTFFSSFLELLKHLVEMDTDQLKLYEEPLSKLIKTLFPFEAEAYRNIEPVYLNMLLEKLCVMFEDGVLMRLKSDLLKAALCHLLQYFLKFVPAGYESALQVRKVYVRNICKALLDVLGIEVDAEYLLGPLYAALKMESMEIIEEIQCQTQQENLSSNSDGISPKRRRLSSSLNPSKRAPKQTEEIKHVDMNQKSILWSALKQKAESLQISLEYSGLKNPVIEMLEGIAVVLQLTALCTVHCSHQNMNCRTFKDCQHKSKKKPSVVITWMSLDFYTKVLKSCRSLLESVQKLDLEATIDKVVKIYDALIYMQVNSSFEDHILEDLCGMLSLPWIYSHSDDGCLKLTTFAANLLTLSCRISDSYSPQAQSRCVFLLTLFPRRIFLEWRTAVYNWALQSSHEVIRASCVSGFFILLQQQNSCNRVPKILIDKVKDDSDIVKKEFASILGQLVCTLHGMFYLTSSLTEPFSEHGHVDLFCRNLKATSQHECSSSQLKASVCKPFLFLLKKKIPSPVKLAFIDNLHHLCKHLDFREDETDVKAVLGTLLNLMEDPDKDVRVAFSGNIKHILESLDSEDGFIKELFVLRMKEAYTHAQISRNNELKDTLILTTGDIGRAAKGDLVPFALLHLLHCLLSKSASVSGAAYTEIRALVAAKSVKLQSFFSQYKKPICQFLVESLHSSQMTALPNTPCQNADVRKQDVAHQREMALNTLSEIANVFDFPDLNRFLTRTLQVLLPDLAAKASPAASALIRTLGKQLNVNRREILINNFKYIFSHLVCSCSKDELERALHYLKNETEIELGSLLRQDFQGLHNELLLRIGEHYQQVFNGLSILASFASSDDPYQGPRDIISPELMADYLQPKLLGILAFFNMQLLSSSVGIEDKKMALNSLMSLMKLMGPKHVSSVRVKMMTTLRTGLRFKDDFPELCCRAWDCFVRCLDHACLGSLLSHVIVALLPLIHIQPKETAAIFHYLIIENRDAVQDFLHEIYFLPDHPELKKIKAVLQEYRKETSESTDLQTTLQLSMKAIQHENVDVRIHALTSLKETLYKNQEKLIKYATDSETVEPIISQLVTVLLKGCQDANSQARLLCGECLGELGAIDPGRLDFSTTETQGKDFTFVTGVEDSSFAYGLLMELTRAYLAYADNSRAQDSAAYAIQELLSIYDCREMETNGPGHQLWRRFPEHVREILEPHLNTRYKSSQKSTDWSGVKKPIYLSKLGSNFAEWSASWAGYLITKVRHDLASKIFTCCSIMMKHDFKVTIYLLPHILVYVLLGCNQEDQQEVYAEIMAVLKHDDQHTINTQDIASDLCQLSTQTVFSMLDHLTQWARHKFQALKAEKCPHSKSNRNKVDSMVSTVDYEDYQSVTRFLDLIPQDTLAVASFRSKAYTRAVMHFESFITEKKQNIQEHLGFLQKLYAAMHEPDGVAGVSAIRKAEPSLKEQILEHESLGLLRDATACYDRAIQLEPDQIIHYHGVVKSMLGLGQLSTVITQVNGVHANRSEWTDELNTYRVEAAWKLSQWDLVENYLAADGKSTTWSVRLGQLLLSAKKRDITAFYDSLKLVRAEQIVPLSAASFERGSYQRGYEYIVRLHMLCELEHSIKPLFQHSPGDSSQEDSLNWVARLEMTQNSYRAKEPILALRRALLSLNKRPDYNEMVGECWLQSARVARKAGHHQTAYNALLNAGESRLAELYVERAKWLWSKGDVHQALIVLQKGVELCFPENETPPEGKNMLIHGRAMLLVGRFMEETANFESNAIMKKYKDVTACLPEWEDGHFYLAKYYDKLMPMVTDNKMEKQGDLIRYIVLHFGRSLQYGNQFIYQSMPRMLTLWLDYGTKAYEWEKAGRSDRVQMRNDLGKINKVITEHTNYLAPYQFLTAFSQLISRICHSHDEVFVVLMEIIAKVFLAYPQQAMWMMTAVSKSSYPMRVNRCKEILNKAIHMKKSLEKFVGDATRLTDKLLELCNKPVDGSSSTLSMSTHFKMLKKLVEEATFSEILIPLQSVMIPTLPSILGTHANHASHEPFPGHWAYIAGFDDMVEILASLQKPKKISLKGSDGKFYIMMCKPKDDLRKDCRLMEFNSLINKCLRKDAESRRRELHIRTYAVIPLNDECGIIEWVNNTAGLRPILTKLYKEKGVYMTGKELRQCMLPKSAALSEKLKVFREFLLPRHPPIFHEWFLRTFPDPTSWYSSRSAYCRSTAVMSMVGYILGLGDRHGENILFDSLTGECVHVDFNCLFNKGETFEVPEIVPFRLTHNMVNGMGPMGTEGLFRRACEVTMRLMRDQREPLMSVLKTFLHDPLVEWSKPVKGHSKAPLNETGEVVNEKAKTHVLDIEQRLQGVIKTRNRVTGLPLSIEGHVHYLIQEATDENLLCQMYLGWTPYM
Sequence of ATR/ATPIP (ATR-interacting protein) kinase (Q8WXE1 whole entry partner): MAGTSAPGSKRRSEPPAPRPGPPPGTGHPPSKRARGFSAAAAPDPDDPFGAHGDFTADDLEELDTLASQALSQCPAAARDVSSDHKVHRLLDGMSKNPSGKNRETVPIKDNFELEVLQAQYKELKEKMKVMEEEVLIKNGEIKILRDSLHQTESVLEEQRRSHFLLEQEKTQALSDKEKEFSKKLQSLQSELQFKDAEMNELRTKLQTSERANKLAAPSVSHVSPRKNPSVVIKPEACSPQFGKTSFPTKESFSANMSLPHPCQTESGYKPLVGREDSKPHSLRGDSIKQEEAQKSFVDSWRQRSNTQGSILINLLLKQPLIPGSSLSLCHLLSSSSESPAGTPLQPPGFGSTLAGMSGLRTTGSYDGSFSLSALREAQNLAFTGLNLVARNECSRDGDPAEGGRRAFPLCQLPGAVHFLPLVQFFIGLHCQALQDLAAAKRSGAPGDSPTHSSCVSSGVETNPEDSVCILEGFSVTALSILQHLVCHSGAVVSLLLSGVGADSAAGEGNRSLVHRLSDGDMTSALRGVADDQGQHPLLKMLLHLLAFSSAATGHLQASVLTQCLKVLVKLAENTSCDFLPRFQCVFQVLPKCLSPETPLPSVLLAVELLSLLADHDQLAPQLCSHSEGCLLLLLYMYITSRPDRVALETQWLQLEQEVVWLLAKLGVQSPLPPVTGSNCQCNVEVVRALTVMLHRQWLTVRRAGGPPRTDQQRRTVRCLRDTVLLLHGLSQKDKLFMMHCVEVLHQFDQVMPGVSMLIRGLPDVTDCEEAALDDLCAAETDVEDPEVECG
In the next test the target is ATM kinase (Homo sapiens, UniProt Q13315). Put plainly: Inhibitory activity against ATM kinase (p53 substrate, HTRF). Format: biochemical. The protocol:
as §1, with “ATM” for “DNA-PK”, “25” for “0.15”

Test [3] has as its system CHK2 phosphorylation of NCI-H2228 cells. Put plainly: Inhibitory activity against CHK2 phosphorylation of NCI-H2228 cells (p-CHK2 Thr68 AlphaLISA). Format: cell-based. The conditions noted are these: Homo sapiens. The protocol:
NCI-H2228 cells in a good growth state were collected, added to a centrifuge tube, adjusted to a cell density of 1.25×10^6 cells/mL, and seeded in a 384-well plate (8 μL/well). The cells were equilibrated in a cell incubator for 1.5 h, and then compounds were added using a nanoliter pipettor, such that the final concentrations of the compounds were 200 nM to 0.049 nM. In this experiment, the wells were set in duplicate, and a control well was set. After the mixture was further cultured for 1 h in the cell incubator, an assay was performed using a p-CHK2 (Thr68) assay kit (manufacturer: perkinelmer) and the Envision microplate reader AlphaLISA program. A four-parameter analysis was performed, a dose-response curve was fit, and IC50 was calculated.
Background: Alpha assays give light when donor and acceptor beads are brought close together.

On to `CC(C)n1c(=O)n(N)c2cnc3ccc(-c4ccc(OCCCN5CCCCC5)nc4)cc3c21` [Example 1], for which the IC50 is > 1000 nM in test [1], 289 nM in test [2] and < 50 nM against ATM kinase.
As to `CC(C)n1c(=O)n(N)c2cnc3cc(F)c(-c4ccc(OCCCN(C5CC5)C5CC5)nc4)cc3c21` [Example 4], the IC50 in test [1] was > 1000 nM; in test [2] it was > 1000 nM; against ATM kinase it was < 50 nM.
Consider `Nn1c(=O)n(C2CCOCC2)c2c3cc(-c4ccc(OCCCN(C5CC5)C5CC5)nc4)c(F)cc3ncc21` [Example 6], for which the IC50 in test [1] is > 1000 nM; in test [2], > 1000 nM; against ATM kinase, < 50 nM.
With `[2H]C([2H])([2H])Nn1c(=O)n(C(C)C)c2c3cc(-c4ccc(OCCCN5CCCCC5)nc4)c(F)cc3ncc21` [Example 8], the IC50 in test [1] is > 1000 nM; in test [2], > 1000 nM; on ATM kinase, < 50 nM.
As for `COc1cc2ncc3c(c2cc1-c1ccc(OCCCN2CCCCC2)nc1)n(C1CC1)c(=O)n3N` [Example 10], the IC50 in test [1] is > 1000 nM; in test [2] it was > 1000 nM; against ATM kinase it was < 50 nM.
With `COC1CCC(n2c(=O)n(N)c3cnc4cc(F)c(-c5ccc(OCCCN6CCCCC6)nc5)cc4c32)C1` (stereo not shown) [Example 12], the IC50 is > 1000 nM in test [1], > 1000 nM in test [2] and < 50 nM on ATM kinase.
On to `Nn1c(=O)n(C2CCOCC2)c2c3cc(-c4ccc(OCCCN5CCCCC5)nc4)c(F)cc3ncc21` [Example 15], for which the values for the half-inhibitory concentration (IC50) (in test [1]; in test [2]; against ATM kinase) were > 1000 nM, > 1000 nM and < 50 nM, respectively.
In the case of `COc1cc2ncc3c(c2cc1-c1ccc(OCCCN2CCCCC2)nc1)n(C(C)C)c(=O)n3N` [Example 16], the figures for the IC50 (in test [1]; in test [2]; on ATM kinase) were > 1000 nM, > 1000 nM and < 50 nM, respectively.
`CC(C)n1c(=O)n(N)c2cnc3cc(F)c(-c4ccc(OCC5CC(N6CCCC6)C5)nc4)cc3c21` (stereo not shown) [Example 22]: the IC50 in test [1] is > 1000 nM; on ATM kinase, < 50 nM; in test [3], < 50 nM.
In the case of `CC(C)n1c(=O)n(N)c2cnc3cc(F)c(-c4ccc(OCCCN5CC(F)C5)nc4)cc3c21` [Example 23], the figures for the IC50 (in test [1]; against ATM kinase; in test [3]) were > 1000 nM, < 50 nM and < 50 nM, respectively.
Take `CC(C)n1c(=O)n(N)c2cnc3cc(F)c(-c4ccc(OCCCN5CC(F)(F)C5)nc4)cc3c21` [Example 24]: the IC50 was > 1000 nM in test [1], < 50 nM at ATM kinase and < 50 nM in test [3].
As for `COc1cc2ncc3c(c2cc1-c1ccc(OCCCN2CCCCC2)nc1)n(-c1c(F)cncc1OC)c(=O)n3N` [Example 30], the IC50 was > 10000 nM in test [1], 8090 nM in test [2] and < 50 nM against ATM kinase.
Regarding `CC(C)n1c(=O)n(N)c2nnc3cc(F)c(-c4ccc(OCCCN5CCCCC5)nc4)cc3c21` [Example 32], in test [3], the IC50 is < 50 nM.
On to `CNn1c(=O)n(C(C)C)c2c3cc(-c4ccc(OCCCN5CCCCC5)nc4)c(F)cc3nnc21` [Example 33], for which the IC50 in test [1] was > 10000 nM; in test [2] it was > 10000 nM; against ATM kinase, < 50 nM.
Consider `CC(C)n1c(=O)n(N)c2nnc3cc(F)c(-c4ccc(OCCCN5CCCC5)nc4)cc3c21` [Example 34], for which the IC50 in test [1] was > 10000 nM; in test [2], > 10000 nM; at ATM kinase, < 50 nM.
Turning to `CNn1c(=O)n(C(C)C)c2c3cc(-c4ccc(OCCCN5CCCC5)nc4)c(F)cc3nnc21` [Example 35], the figures for the 50% inhibitory concentration (IC50) (in test [1]; in test [2]; on ATM kinase) were > 10000 nM, > 10000 nM and < 50 nM, respectively.
Take `Nn1c(=O)n(C2CC2)c2c3cc(-c4ccc(OCCCN5CCCCC5)nc4)c(F)cc3nnc21` [Example 36]: the values for the IC50 (in test [1]; in test [2]; at ATM kinase) were > 10000 nM, > 10000 nM and < 50 nM, respectively.
Consider `Nn1c(=O)n(C2CC2)c2c3cc(-c4ccc(OCCCN5CCCC5)nc4)c(F)cc3nnc21` [Example 37], for which the figures for the IC50 (in test [1]; in test [2]; against ATM kinase) were > 10000 nM, > 10000 nM and < 50 nM, respectively.
